We go through 11 compounds from ChEMBL document CHEMBL1201862, “PubChem BioAssay data set” (2004).

Some test systems named below: A498; OVCAR-4; HOP-92; CCRF-CEM; NCI-H522; SR; SK-MEL-28; ACHN; TK-10; NCI-H23; U-251; KM12; SK-MEL-2; MOLT-4; MDA-MB-435; Malme-3M; LOX IMVI; HCC 2998; MCF7; OVCAR-5.
What all share (assay): NCI tumour cell line growth inhibition, 48 h

SMILES strings stand for the structures.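 Compound exposure: 48 hours, 5 concentrations, 96-well plates. Here, GI50 denotes the concentration required for 50% inhibition of growth.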 Active and inactive are the calls of the source. No stated cut-off is given here; in the data, active = GI50 up to about 1.1 µM and inactive = higher.

For `Cc1nc(Nc2nc3ccccc3[nH]2)nc(Cl)c1CCCl`, the GI50 was > 100 µM (inactive) in the test on A498; > 100 µM (inactive) in the test on OVCAR-4; < 0.01 µM (active) in the test on HOP-92; > 100 µM (inactive) in the test on CCRF-CEM; > 100 µM (inactive) in the test on NCI-H522; > 100 µM (inactive) in the test with SR. The GI50 in the test with SK-MEL-28 was > 100 µM (inactive); in the test with ACHN, > 100 µM (inactive); in the test on TK-10, > 100 µM (inactive); with NCI-H23, > 100 µM (inactive); in the test on U-251, 49 µM (inactive); in the test with KM12, > 100 µM (inactive). In addition, the GI50 in the test with SK-MEL-2, in the test on MOLT-4, in the test with MDA-MB-435 and with Malme-3M was > 100 µM (inactive) in each case.
As to `CC(=O)c1cc2c(s1)C(=O)c1ccsc1C2=O`, the GI50 was 7.24 µM (inactive) in the test with A498; 0.0414 µM (active) in the test with LOX IMVI; 1.26 µM (inactive) in the test on OVCAR-4; 1.56 µM (inactive) with HOP-92; 0.335 µM (active) in the test on CCRF-CEM; 0.16 µM (active) with NCI-H522. For the same compound, the GI50 in the test with HCC 2998 is 1.74 µM (inactive); in the test on MCF7, 0.293 µM (active); in the test with SK-MEL-28, 0.185 µM (active); in the test on ACHN, 0.215 µM (active); in the test with TK-10 it was 1.97 µM (inactive); in the test on NCI-H23, 0.167 µM (active). Further, the GI50 with U-251 is 0.233 µM (active); with KM12, 1.61 µM (inactive); with SK-MEL-2 it was 0.621 µM (active); in the test on OVCAR-5, 0.74 µM (active); in the test with MOLT-4, 0.438 µM (active); in the test on MDA-MB-435, 0.0713 µM (active). Also, the GI50 with Malme-3M is 0.146 µM (active).
Regarding `Cc1ccc(S(=O)(=O)N2C[C@](O)(c3ccccc3)[C@H]2C)cc1`, the GI50 was > 100 µM (inactive) with A498; > 100 µM (inactive) in the test with LOX IMVI; > 100 µM (inactive) in the test on OVCAR-4; > 100 µM (inactive) in the test with HOP-92; 26.4 µM (inactive) with CCRF-CEM; > 100 µM (inactive) in the test on NCI-H522. Moreover, the GI50 in the test on MCF7, in the test on SK-MEL-28, with ACHN, in the test on TK-10, in the test with NCI-H23 and in the test on U-251 was > 100 µM (inactive) throughout. The GI50 with KM12 is > 100 µM (inactive); in the test on SK-MEL-2, > 100 µM (inactive); in the test with OVCAR-5, > 100 µM (inactive); with MOLT-4 it was 44.2 µM (inactive); with MDA-MB-435, > 100 µM (inactive); with Malme-3M, > 100 µM (inactive).
For the compound `CC1=CC(=O)N(n2c(-c3ccccc3)n[nH]c2=O)C1=O`, the GI50 in the test on LOX IMVI was > 100 µM (inactive); in the test with OVCAR-4 it was > 100 µM (inactive); in the test on CCRF-CEM, 43.9 µM (inactive); in the test with NCI-H522, > 100 µM (inactive); in the test with HCC 2998 it was > 100 µM (inactive); with MCF7, > 100 µM (inactive). Besides, the GI50 in the test with SK-MEL-28, with ACHN, with TK-10, in the test on NCI-H23, with U-251 and with KM12 was > 100 µM (inactive) throughout. Moreover, the GI50 with SK-MEL-2, in the test with OVCAR-5, in the test on MOLT-4, with MDA-MB-435 and with Malme-3M was > 100 µM (inactive) each time.
For `COC1=CC(=O)[C@H]2[C@H](C)C(c3ccccc3)[C@@]2(C)C1=O` (stereo not given in full), the GI50 with A498, with LOX IMVI, with OVCAR-4, in the test on HOP-92, in the test with CCRF-CEM and in the test with NCI-H522 was > 100 µM (inactive) in each case. Besides, the GI50 in the test on HCC 2998, with SR, with SK-MEL-28, in the test with ACHN, in the test on TK-10 and in the test on NCI-H23 was > 100 µM (inactive) each time. The GI50 in the test with U-251, in the test with KM12, in the test with SK-MEL-2, in the test with OVCAR-5, with MOLT-4 and in the test with Malme-3M was > 100 µM (inactive) throughout.
Consider `COC(=O)[C@]1(C)CC[C@]2(C)CC[C@]3(C)C4[C@H]5Oc6c(cc7c(c6C)CCC6[C@@]7(C)CC[C@@]7(C)C8[C@](C)(CCC[C@@]8(C)C(=O)OC)CC[C@]67C)O[C@H]5c5c(cc6c(c5C)O[C@@]5(C)C7=CC=C8[C@@](C)(CC[C@@]9(C)[C@@H]%10C[C@](C)(C(=O)OC)CC[C@]%10(C)CC[C@]89C)C7=CC(=O)[C@@]5(O)O6)[C@]4(C)CC[C@@]3(C)C2C1` (stereo not given in full), for which the GI50 in the test with A498 was > 12.5 µM (inactive); in the test on LOX IMVI, 2.27 µM (inactive); in the test on OVCAR-4, 7.59 µM (inactive); with HOP-92, 1.92 µM (inactive); in the test on CCRF-CEM, 1.19 µM (inactive); in the test with NCI-H522 it was 2.49 µM (inactive). In addition, the GI50 in the test with MCF7 is 3.11 µM (inactive); in the test with SK-MEL-28, 7.53 µM (inactive); in the test with ACHN, 3.94 µM (inactive); in the test on TK-10, 2.6 µM (inactive); in the test with NCI-H23, 8.97 µM (inactive); with U-251, 3.66 µM (inactive). The GI50 with KM12 is > 12.5 µM (inactive); in the test on SK-MEL-2, 3.01 µM (inactive); in the test with OVCAR-5, 9.79 µM (inactive); with MOLT-4 it was 1.39 µM (inactive); with MDA-MB-435 it was 3.56 µM (inactive); with Malme-3M, 4.86 µM (inactive).
For the compound `CC(C)N(C(=O)C12C3C4C5C3C1(C(=O)N(C(C)C)C(C)C)C5C42)C(C)C` (stereo not given), the GI50 with A498 was > 100 µM (inactive); with LOX IMVI, > 46.8 µM (inactive); with OVCAR-4 it was > 100 µM (inactive); in the test with HOP-92, > 100 µM (inactive); with CCRF-CEM it was > 47.1 µM (inactive); in the test on NCI-H522 it was > 100 µM (inactive). Moreover, the GI50 in the test with HCC 2998 is > 100 µM (inactive); with SR it was 19.1 µM (inactive); in the test on SK-MEL-28 it was > 100 µM (inactive); with ACHN it was > 100 µM (inactive); with TK-10 it was > 100 µM (inactive); with NCI-H23, > 100 µM (inactive). The GI50 in the test on U-251 was > 100 µM (inactive); in the test with KM12, > 100 µM (inactive); with SK-MEL-2, > 100 µM (inactive); in the test on OVCAR-5 it was > 100 µM (inactive); in the test on MOLT-4, 68.9 µM (inactive); with Malme-3M it was > 100 µM (inactive).
Consider `S=c1[nH]c2c(Cl)c(Cl)c(Cl)c(Cl)c2[nH]1`, for which the GI50 in the test with A498 was 22.2 µM (inactive); with LOX IMVI, 8.69 µM (inactive); in the test with OVCAR-4 it was 5.94 µM (inactive); with HOP-92 it was 19.5 µM (inactive); in the test with CCRF-CEM, 1.16 µM (inactive); with NCI-H522, 1.2 µM (inactive). For the same compound, the GI50 in the test on HCC 2998 is 0.955 µM (active); in the test with MCF7, 16.8 µM (inactive); in the test on ACHN, 15.8 µM (inactive); in the test with TK-10, 22 µM (inactive); in the test with NCI-H23, 29.2 µM (inactive); with U-251, 31.7 µM (inactive). Further, the GI50 was 15.5 µM (inactive) in the test on KM12; 25.8 µM (inactive) in the test on OVCAR-5; 4.8 µM (inactive) in the test with MOLT-4; 17.5 µM (inactive) with MDA-MB-435; 14.9 µM (inactive) in the test with Malme-3M.
Consider `COC(=O)C(CCS(=O)(=O)CC(=O)C(=O)Nc1cccc(C(C)=O)c1)C(=O)OC`, for which the GI50 with A498 is > 100 µM (inactive); in the test on LOX IMVI it was > 61.9 µM (inactive); with OVCAR-4, > 100 µM (inactive); in the test on HOP-92, > 100 µM (inactive); in the test with CCRF-CEM, > 43.1 µM (inactive); in the test with NCI-H522, > 92.3 µM (inactive). For the same compound, the GI50 was > 100 µM (inactive) with HCC 2998; 20.9 µM (inactive) with SR; > 91.4 µM (inactive) in the test with SK-MEL-28; > 100 µM (inactive) in the test with ACHN; > 100 µM (inactive) with TK-10; > 100 µM (inactive) with NCI-H23. Besides, the GI50 in the test on U-251 is > 89.7 µM (inactive); in the test with KM12 it was > 100 µM (inactive); in the test on SK-MEL-2, > 100 µM (inactive); in the test on OVCAR-5, > 100 µM (inactive); in the test on MOLT-4, > 100 µM (inactive); in the test with Malme-3M it was > 100 µM (inactive).
With `CC(=O)OC1CC2C(C)(C)C(=O)C=C[C@]2(C)C2CCC3(C)C(c4ccoc4)[C@@H](O)[C@H]4O[C@]43[C@]12C` (stereo not given in full), the GI50 was 29.6 µM (inactive) in the test on A498; 16.9 µM (inactive) with LOX IMVI; 19.7 µM (inactive) with OVCAR-4; 20.3 µM (inactive) with HOP-92; 21.6 µM (inactive) with CCRF-CEM; 14.6 µM (inactive) in the test with NCI-H522. Moreover, the GI50 with HCC 2998 is 16.1 µM (inactive); with SR it was 16.1 µM (inactive); in the test with SK-MEL-28 it was 23.7 µM (inactive); in the test on ACHN it was 21.8 µM (inactive); in the test with TK-10 it was 34.2 µM (inactive); in the test with NCI-H23, 18.1 µM (inactive). For the same compound, the GI50 in the test on U-251 was 14.6 µM (inactive); in the test with KM12, 19.2 µM (inactive); in the test with SK-MEL-2 it was 18.9 µM (inactive); with OVCAR-5 it was 25.9 µM (inactive); with MOLT-4 it was 21.7 µM (inactive); with Malme-3M it was 24.2 µM (inactive).
In the case of `NC1=NN(c2ccccc2)C(=O)C1/C(=N\NC(=O)c1cc2ccccc2cc1O)C(=O)Nc1nc([N+](=O)[O-])cs1` (stereo not given), the GI50 is 41.2 µM (inactive) in the test with A498; 18.4 µM (inactive) in the test with LOX IMVI; 33.7 µM (inactive) in the test on OVCAR-4; 13.7 µM (inactive) in the test on HOP-92; 17.3 µM (inactive) in the test with CCRF-CEM; 19.1 µM (inactive) in the test with NCI-H522. Moreover, the GI50 is 40.2 µM (inactive) in the test with HCC 2998; 6.78 µM (inactive) with SR; 42.7 µM (inactive) in the test on SK-MEL-28; 34.4 µM (inactive) in the test on ACHN; 38.5 µM (inactive) in the test on TK-10; 18.4 µM (inactive) in the test on NCI-H23. Further, the GI50 in the test on U-251 is 27.7 µM (inactive); with KM12, 30.3 µM (inactive); in the test with SK-MEL-2 it was > 49.8 µM (inactive); in the test on OVCAR-5, 44.9 µM (inactive); in the test with MOLT-4, 3.6 µM (inactive); in the test with Malme-3M it was > 65 µM (inactive).
